Source: patent US10196401B2, “Spiro-lactam NMDA receptor modulators and uses thereof” (Aptinyx Inc., priority 2016, dated 2019)

Tests used:
NMDAR2A = NMDAR2A (Homo sapiens, UniProt Q12879); experiment: Potentiation of [3H]MK-801 binding, NMDAR2A; set-up: species or system rat; details: NMDAR2A binding profile; for % 1 mM Glycine: relative to 1 mM glycine
Method: (§1) Assays were conducted as described by Moskal et al., “GLYX-13: a monoclonal antibody-derived peptide that acts as an N-rnethyl-D-aspartate receptor modulator,” Neuropharmacology, 49, 1077-87, 2005. The potentiation of [^3H]MK-801 binding (5 nrM; 22.5 Ci/mmol) to well washed rat cortical membranes (200 μg) was measured under non-equilibrium conditions (15 min @ 25° C.) in the presence of increasing concentrations of Compound A.
(§2) Assays were conducted as described above in Example 5, by Moskal et al. (2005).

NMDAR2B = NMDAR2B (Homo sapiens, UniProt Q13224); experiment: Potentiation of [3H]MK-801 binding, NMDAR2B; set-up: species or system rat; details: NMDAR2B binding profile; for % 1 mM Glycine: relative to 1 mM glycine
NMDAR2C = NMDAR2C (Homo sapiens, UniProt Q14957); experiment: Potentiation of [3H]MK-801 binding, NMDAR2C; set-up: species or system rat; details: NMDAR2C binding profile; for % 1 mM Glycine: relative to 1 mM glycine
NMDAR2D = NMDAR2D (Homo sapiens, UniProt O15399); experiment: Potentiation of [3H]MK-801 binding, NMDAR2D; set-up: species or system rat; details: NMDAR2D binding profile; for % 1 mM Glycine: relative to 1 mM glycine
Method: as §1, §2

Sprague Dawley rats = experiment: Bennett model of mechanical analgesia (paw withdrawal threshold); format: in vivo, rat; details: 150 mg/kg PO; tested 1 h, 24 hrs and 1 week post-dosing
Method: Bennett G J, Xie Y K, “A peripheral mononeuropathy in rat that produces disorders of pain sensation like those seen in man,” Pain 33:87-107, 1988. […] Vehicle animals receive the surgery and then receive vehicle rather than test compound. Animals were tested 1 hr, 24 h and 1 wk post-test compound or vehicle administration.
Male 2-3 month old Sprague Dawley rats were used. Harlan was the supplier for all studies. Rats were housed in Lucite cages with aspen wood chip bedding, maintained on a 12:12 light:dark cycle (lights on at 5 AM), and given ad libitum access to Purina lab chow (USA) and tap water throughout the study.
Rats were anesthetized using inhaled isoflurane (2.5%). Spared nerve injury surgery was performed as previously described (Bennett and Xie, 1988). An incision (˜1.5 cm in length) was made with a scalpel blade dorsally through skin on the right hindlimb, parallel and posterior to femur. Using a small pointed hemostat, the biceps femoris and gluteus superficialis muscles were separated. Using curved blunt forceps, the common sciatic nerve was isolated and exposed. For the mechanical analgesia studies, the whole sciatic nerve was ligated. Using hemostats/forceps and chromic gut (5-0), the nerve was loosely ligated with a square knot; 3 ligatures, 1 mm apart were placed on the nerve. […] For the thermal analgesia studies, the common peroneal and tibial branches of the sciatic nerve were ligated and cut, and the sural branch was spared. See Decosterd I, Woolf C J, “Spared nerve injury: an animal model of persistent peripheral neuropathic pain,” Pain 87:149-158, 2000. Testing occurred 1-2 weeks post-surgery.
During testing, rats were acclimated to the surface of a suspended wire mesh grid (1 cm×1 cm, with the wire being 0.3 cm in diameter) for 15-20 min. Starting from the smallest, each Von Frey filament was pressed perpendicularly to the plantar surface of the affected (ipsilateral) hindpaw until slightly bent and then held for 6 second. […]

Chain of NMDAR2D (O15399 28-1336, species assumed, other chains not shown): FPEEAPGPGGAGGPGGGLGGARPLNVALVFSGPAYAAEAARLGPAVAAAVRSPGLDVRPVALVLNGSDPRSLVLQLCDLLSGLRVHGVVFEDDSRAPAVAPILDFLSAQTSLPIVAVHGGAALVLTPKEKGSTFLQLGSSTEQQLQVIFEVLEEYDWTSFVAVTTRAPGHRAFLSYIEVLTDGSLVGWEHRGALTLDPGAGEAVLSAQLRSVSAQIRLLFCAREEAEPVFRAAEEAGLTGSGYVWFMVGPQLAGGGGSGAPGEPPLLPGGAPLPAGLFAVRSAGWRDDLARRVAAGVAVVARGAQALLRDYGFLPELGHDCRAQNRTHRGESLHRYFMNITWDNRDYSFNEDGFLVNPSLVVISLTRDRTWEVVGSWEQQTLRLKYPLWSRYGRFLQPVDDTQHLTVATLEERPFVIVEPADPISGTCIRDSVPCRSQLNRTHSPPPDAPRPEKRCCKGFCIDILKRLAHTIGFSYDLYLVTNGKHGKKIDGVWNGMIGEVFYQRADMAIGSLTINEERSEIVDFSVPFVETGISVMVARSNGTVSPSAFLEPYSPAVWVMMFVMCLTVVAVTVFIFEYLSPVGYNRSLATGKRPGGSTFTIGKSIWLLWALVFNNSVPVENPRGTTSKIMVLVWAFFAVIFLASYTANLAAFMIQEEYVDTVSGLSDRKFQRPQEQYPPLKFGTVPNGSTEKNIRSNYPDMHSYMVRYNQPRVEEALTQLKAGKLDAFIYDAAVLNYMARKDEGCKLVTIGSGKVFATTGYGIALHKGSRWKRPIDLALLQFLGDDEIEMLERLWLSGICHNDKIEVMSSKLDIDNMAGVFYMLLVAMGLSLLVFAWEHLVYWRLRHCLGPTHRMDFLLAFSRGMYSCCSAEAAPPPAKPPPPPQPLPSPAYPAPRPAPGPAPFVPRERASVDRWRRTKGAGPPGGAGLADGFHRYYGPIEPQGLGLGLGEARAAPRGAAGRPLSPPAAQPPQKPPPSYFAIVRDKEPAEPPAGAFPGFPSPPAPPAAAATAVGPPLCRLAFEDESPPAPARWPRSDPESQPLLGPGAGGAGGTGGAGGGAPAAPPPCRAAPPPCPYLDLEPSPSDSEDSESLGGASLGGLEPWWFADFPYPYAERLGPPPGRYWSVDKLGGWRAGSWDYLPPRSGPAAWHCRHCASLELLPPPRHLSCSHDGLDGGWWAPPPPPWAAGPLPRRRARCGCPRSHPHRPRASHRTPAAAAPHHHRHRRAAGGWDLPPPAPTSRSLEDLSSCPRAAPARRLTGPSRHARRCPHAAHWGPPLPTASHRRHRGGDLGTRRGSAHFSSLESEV
Chain of NMDAR2A (Q12879 23-1464, species assumed, other chains not shown): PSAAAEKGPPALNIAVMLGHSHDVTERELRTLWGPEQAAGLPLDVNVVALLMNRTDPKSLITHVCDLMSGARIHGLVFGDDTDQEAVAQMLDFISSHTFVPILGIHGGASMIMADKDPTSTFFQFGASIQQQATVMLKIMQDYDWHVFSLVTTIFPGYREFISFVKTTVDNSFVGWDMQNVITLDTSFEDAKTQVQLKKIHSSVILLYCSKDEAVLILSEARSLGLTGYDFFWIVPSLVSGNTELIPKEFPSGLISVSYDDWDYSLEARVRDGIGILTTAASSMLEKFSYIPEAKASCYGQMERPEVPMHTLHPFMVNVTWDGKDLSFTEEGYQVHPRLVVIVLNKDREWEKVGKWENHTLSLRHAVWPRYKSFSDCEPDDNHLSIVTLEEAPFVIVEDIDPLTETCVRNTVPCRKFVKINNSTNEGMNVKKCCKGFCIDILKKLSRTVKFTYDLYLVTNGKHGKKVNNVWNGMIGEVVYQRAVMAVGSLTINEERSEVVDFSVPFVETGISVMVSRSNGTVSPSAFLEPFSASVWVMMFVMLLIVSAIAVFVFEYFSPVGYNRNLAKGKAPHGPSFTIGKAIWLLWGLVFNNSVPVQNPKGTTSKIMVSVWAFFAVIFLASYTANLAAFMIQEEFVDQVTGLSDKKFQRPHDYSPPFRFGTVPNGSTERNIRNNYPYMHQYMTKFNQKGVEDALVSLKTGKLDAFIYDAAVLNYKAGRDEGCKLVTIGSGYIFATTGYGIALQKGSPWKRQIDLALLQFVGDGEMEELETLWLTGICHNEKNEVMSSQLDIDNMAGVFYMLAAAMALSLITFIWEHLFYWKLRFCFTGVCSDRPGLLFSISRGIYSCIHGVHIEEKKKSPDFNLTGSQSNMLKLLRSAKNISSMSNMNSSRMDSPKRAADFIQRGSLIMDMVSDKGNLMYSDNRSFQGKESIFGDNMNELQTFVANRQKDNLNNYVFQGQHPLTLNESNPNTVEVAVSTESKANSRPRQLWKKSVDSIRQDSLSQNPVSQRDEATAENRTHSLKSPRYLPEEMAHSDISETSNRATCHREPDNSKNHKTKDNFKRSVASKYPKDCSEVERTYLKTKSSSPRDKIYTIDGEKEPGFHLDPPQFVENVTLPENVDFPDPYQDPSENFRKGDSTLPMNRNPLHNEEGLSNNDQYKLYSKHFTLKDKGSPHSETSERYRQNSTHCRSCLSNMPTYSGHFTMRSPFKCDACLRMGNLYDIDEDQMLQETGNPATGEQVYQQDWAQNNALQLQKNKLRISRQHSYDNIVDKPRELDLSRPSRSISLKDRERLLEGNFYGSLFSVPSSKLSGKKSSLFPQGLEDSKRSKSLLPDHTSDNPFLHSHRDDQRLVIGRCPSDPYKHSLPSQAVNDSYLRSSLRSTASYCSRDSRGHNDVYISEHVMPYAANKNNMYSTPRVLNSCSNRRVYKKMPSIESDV
Chain of NMDAR2B (Q13224 27-1484, species assumed, other chains not shown): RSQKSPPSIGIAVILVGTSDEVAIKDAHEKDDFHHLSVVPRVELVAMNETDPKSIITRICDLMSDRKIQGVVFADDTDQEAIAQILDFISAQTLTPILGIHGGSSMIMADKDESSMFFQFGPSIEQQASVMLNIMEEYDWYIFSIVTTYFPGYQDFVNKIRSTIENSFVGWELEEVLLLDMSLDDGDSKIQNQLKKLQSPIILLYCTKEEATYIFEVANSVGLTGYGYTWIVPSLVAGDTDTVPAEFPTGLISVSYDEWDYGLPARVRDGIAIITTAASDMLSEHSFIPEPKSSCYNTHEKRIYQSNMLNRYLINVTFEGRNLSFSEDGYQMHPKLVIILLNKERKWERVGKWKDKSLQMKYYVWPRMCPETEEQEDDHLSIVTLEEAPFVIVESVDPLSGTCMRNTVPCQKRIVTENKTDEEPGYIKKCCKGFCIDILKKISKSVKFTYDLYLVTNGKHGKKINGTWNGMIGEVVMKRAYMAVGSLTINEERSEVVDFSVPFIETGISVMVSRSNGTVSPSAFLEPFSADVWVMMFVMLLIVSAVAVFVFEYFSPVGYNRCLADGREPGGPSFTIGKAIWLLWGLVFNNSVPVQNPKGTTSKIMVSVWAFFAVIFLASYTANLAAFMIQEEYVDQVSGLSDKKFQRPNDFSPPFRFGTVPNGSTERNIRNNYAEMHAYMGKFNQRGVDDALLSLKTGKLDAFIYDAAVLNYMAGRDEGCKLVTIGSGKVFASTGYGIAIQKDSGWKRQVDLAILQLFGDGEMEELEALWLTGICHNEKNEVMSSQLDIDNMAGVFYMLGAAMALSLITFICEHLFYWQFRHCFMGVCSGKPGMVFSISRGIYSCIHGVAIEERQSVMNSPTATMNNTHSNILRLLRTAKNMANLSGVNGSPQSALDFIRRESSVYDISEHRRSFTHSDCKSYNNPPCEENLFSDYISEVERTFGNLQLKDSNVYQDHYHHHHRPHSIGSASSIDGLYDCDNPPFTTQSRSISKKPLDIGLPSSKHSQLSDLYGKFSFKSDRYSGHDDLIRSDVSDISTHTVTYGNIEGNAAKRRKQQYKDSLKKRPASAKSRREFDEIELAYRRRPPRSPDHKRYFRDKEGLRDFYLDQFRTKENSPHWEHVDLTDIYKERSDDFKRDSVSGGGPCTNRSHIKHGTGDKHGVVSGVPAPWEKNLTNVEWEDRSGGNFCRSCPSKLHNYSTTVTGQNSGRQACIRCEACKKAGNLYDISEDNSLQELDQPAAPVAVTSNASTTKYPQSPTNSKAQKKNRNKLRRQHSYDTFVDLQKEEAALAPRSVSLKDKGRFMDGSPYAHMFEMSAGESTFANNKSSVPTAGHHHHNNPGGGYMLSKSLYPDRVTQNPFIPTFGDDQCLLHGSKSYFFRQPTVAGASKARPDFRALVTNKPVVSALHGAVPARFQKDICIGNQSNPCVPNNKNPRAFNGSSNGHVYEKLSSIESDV

SMILES: C[C@@H](O)[C@@H](C(N)=O)N1C[C@]2(CCCN2C(=O)OC(C)(C)C)C1=O [Compound W, tert-butyl (R)-2-((2S,3R)-1-amino-3-hydroxy-1-oxobutan-2-yl)-1-oxo-2,5-diazaspiro[3.4]octane-5-carboxylate]
- Conclusion (NMDAR2A): WT2A agonist
- % 1 mM Glycine (NMDAR2A): 18.33%
- Conclusion (NMDAR2B): WT2B agonist
- % 1 mM Glycine (NMDAR2B): 53.09%
- Conclusion (NMDAR2C): WT2C agonist
- % 1 mM Glycine (NMDAR2C): 67.5%
- Conclusion (NMDAR2D): agonist
- % 1 mM Glycine (NMDAR2D): 66.72%

SMILES: C[C@@H](O)[C@@H](C(N)=O)N1C[C@@]2(CCCN2C(=O)OC(C)(C)C)C1=O [Compound X, tert-butyl (S)-2-((2S,3R)-1-amino-3-hydroxy-1-oxobutan-2-yl)-1-oxo-2,5-diazaspiro[3.4]octane-5-carboxylate]
- Conclusion (NMDAR2A): WT2A agonist
- % 1 mM Glycine (NMDAR2A): 41.04%
- Conclusion (NMDAR2B): WT2B agonist
- % 1 mM Glycine (NMDAR2B): 59.55%
- Conclusion (NMDAR2C): WT2C agonist
- % 1 mM Glycine (NMDAR2C): 59.73%
- Conclusion (NMDAR2D): agonist
- % 1 mM Glycine (NMDAR2D): 93.58%

SMILES: CC(C)C(=O)N1CCC[C@]12CN([C@H](C(N)=O)[C@@H](C)O)C2=O [Compound Y, (2S,3R)-3-hydroxy-2-((R)-5-isobutyryl-1-oxo-2,5-diazaspiro[3.4]octan-2-yl)butanamide]
- Conclusion (NMDAR2A): WT2A agonist
- % 1 mM Glycine (NMDAR2A): 61.76%
- Conclusion (NMDAR2B): WT2B agonist
- % 1 mM Glycine (NMDAR2B): 70.74%
- Conclusion (NMDAR2C): WT2C agonist
- % 1 mM Glycine (NMDAR2C): 64.24%
- Conclusion (NMDAR2D): agonist
- % 1 mM Glycine (NMDAR2D): 54.85%

SMILES: CC(C)C(=O)N1CCC[C@@]12CN([C@H](C(N)=O)[C@@H](C)O)C2=O [Compound Z, (2S,3R)-3-hydroxy-2-((S)-5-isobutyryl-1-oxo-2,5-diazaspiro[3.4]octan-2-yl)butanamide]
- Conclusion (NMDAR2A): WT2A agonist
- % 1 mM Glycine (NMDAR2A): 42.5%
- Conclusion (NMDAR2B): WT2B agonist
- % 1 mM Glycine (NMDAR2B): 70.49%
- Conclusion (NMDAR2C): WT2C agonist
- % 1 mM Glycine (NMDAR2C): 47.76%
- Conclusion (NMDAR2D): agonist
- % 1 mM Glycine (NMDAR2D): 65.32%

SMILES: NCC1(CC(=O)O)CCCCC1 [gabapentin, reference compound]
- analgesic effect in the Bennett model (Sprague Dawley rats): only produced an analgesic effect 1 h post-dosing
